The source made the active and inactive calls. The rule behind the calls is not given here.
Assays:
[1] = Ratio of fAUC in […] pharmacodynamic model to MIC for multidrug-resistant Staphylococcus aureus 3286 at 4000 mg treated every 12 hrs; assay type: functional
Staphylococcus aureus [2] = experiment: Antibacterial activity against heterogeneous vancomycin-intermediate Staphylococcus aureus Mu3 infected in […] pharmacodynamic model at 1000 mg treated every 12 hrs measured after 48 hrs post dose; assay type: functional
[3] = Ratio of fAUC in […] pharmacodynamic model to MIC for heterogeneous vancomycin-intermediate Staphylococcus aureus Mu3 at 2250 mg treated every 12 hrs; assay type: functional
Staphylococcus aureus [4] = experiment: fCmin in heterogeneous vancomycin-intermediate Staphylococcus aureus 1629 infected in vivo pharmacodynamic model at 750 mg treated every 12 hrs; assay type: ADME, organism-based
Staphylococcus aureus [5] = experiment: fCmin in heterogeneous vancomycin-intermediate Staphylococcus aureus Mu3 infected in vivo pharmacodynamic model at 700 mg treated every 12 hrs; assay type: ADME, organism-based
Staphylococcus aureus [6] = experiment: fCmin in heterogeneous vancomycin-intermediate Staphylococcus aureus 1629 infected in vivo pharmacodynamic model at 1750 mg treated every 12 hrs; assay type: ADME, organism-based
[7] = Ratio of fAUC in […] pharmacodynamic model to MIC for heterogeneous vancomycin-intermediate Staphylococcus aureus Mu3 at 2000 mg treated every 12 hrs; assay type: functional
Staphylococcus aureus [8] = experiment: fCmin in heterogeneous vancomycin-intermediate Staphylococcus aureus Mu3 infected […] pharmacodynamic model at 1000 mg treated every 12 hrs; assay type: ADME, organism-based
Staphylococcus aureus [9] = experiment: fCmin in heterogeneous vancomycin-intermediate Staphylococcus aureus Mu3 infected in vivo pharmacodynamic model at 1500 mg treated every 12 hrs; assay type: ADME, organism-based
[10] = Ratio of fAUC in […] pharmacodynamic model to MIC for multidrug-resistant Staphylococcus aureus 3286 at 2000 mg treated every 12 hrs; assay type: functional
[11] = Ratio of fAUC in […] pharmacodynamic model to MIC for heterogeneous vancomycin-intermediate Staphylococcus aureus 1629 at 2000 mg treated every 12 hrs; assay type: functional
[12] = Ratio of fAUC in […] pharmacodynamic model to MIC for heterogeneous vancomycin-intermediate Staphylococcus aureus Mu3 at 750 mg treated every 12 hrs; assay type: functional
[13] = Ratio of fAUC in […] pharmacodynamic model to MIC for heterogeneous vancomycin-intermediate Staphylococcus aureus 1629 at 750 mg treated every 12 hrs; assay type: functional
Staphylococcus aureus [14] = experiment: fCmin in heterogeneous vancomycin-intermediate Staphylococcus aureus Mu3 infected […] pharmacodynamic model at 2000 mg treated every 12 hrs; assay type: ADME, organism-based
Staphylococcus aureus [15] = experiment: fCmin in heterogeneous vancomycin-intermediate Staphylococcus aureus 1629 infected […] pharmacodynamic model at 1000 mg treated every 12 hrs; assay type: ADME, organism-based
Staphylococcus aureus [16] = experiment: Antibacterial activity against heterogeneous vancomycin-intermediate Staphylococcus aureus Mu3 infected in […] pharmacodynamic model at 2500 mg treated every 12 hrs measured after 24 hrs post dose; assay type: functional
[17] = Ratio of fAUC in […] pharmacodynamic model to MIC for heterogeneous vancomycin-intermediate Staphylococcus aureus Mu3 at 5000 mg treated every 12 hrs; assay type: functional
Staphylococcus aureus [18] = experiment: fCmin in heterogeneous vancomycin-intermediate Staphylococcus aureus Mu3 infected in vivo pharmacodynamic model at 2500 mg treated every 12 hrs; assay type: ADME, organism-based
Staphylococcus aureus [19] = experiment: fCmin in heterogeneous vancomycin-intermediate Staphylococcus aureus Mu3 infected in vivo pharmacodynamic model at 2250 mg treated every 12 hrs; assay type: ADME, organism-based
Staphylococcus aureus [20] = experiment: Antibacterial activity against heterogeneous vancomycin-intermediate Staphylococcus aureus 1629 infected in […] pharmacodynamic model at 700 mg treated every 12 hrs measured after 72 hrs post dose; assay type: functional
[21] = Ratio of fAUC in […] pharmacodynamic model to MIC for multidrug-resistant Staphylococcus aureus; assay type: functional
Staphylococcus aureus [22] = experiment: fCmin in multidrug-resistant Staphylococcus aureus 3286 infected in vivo pharmacodynamic model at 1500 mg treated every 12 hrs; assay type: ADME, organism-based
Staphylococcus aureus [23] = experiment: Antibacterial activity against heterogeneous vancomycin-intermediate Staphylococcus aureus Mu3 infected in […] pharmacodynamic model at 2500 mg treated every 12 hrs measured after 48 hrs post dose; assay type: functional
Staphylococcus aureus [24] = experiment: fCmin in heterogeneous vancomycin-intermediate Staphylococcus aureus Mu3 infected in vivo pharmacodynamic model at 5000 mg treated every 12 hrs; assay type: ADME, organism-based
Staphylococcus aureus [25] = experiment: Antibacterial activity against heterogeneous vancomycin-intermediate Staphylococcus aureus Mu3 infected in […] pharmacodynamic model at 1500 mg treated every 12 hrs measured after 48 hrs post dose; assay type: functional
Staphylococcus aureus [26] = experiment: Antibacterial activity against multidrug-resistant Staphylococcus aureus 3286 infected in in vitro pharmacodynamic model at 1000 to 2000 mg treated every 12 hrs using 10^6 CFU/ml inoculum by time-kill analysis; assay type: functional, organism-based
[27] = Ratio of fAUC in […] pharmacodynamic model to MIC for heterogeneous vancomycin-intermediate Staphylococcus aureus Mu3 at 2500 mg treated every 12 hrs; assay type: functional
Staphylococcus aureus [28] = experiment: fCmin in multidrug-resistant Staphylococcus aureus 3286 infected […] pharmacodynamic model at 4000 mg treated every 12 hrs; assay type: ADME, organism-based
Staphylococcus aureus [29] = experiment: fCmin in heterogeneous vancomycin-intermediate Staphylococcus aureus 1629 infected in vivo pharmacodynamic model at 1500 mg treated every 12 hrs; assay type: ADME, organism-based
[30] = Ratio of fAUC in […] pharmacodynamic model to MIC for heterogeneous vancomycin-intermediate Staphylococcus aureus 1629 at 4000 mg treated every 12 hrs; assay type: functional
Staphylococcus aureus [31] = experiment: Antibacterial activity against multidrug-resistant Staphylococcus aureus 3286 infected in […] pharmacodynamic model at 4000 mg treated every 12 hrs measured after 72 hrs post dose; assay type: functional
Staphylococcus aureus [32] = experiment: Antibacterial activity against multidrug-resistant Staphylococcus aureus 3286 infected in […] pharmacodynamic model at 2000 mg treated every 12 hrs measured after 48 hrs post dose; assay type: functional
Staphylococcus aureus [33] = experiment: fCmin in heterogeneous vancomycin-intermediate Staphylococcus aureus 1629 infected in vivo pharmacodynamic model at 4000 mg treated every 12 hrs; assay type: ADME, organism-based
Staphylococcus aureus [34] = experiment: fCmin in heterogeneous vancomycin-intermediate Staphylococcus aureus 1629 infected in vivo pharmacodynamic model at 2000 mg treated every 12 hrs; assay type: ADME, organism-based
[35] = Ratio of fAUC in […] pharmacodynamic model to MIC for heterogeneous vancomycin-intermediate Staphylococcus aureus Mu3 at 1000 mg treated every 12 hrs; assay type: functional
Staphylococcus aureus [36] = experiment: Antibacterial activity against heterogeneous vancomycin-intermediate Staphylococcus aureus Mu3 infected in […] pharmacodynamic model at 1000 mg treated every 12 hrs measured after 24 hrs post dose; assay type: functional
[37] = Ratio of fAUC in […] pharmacodynamic model to MIC for heterogeneous vancomycin-intermediate Staphylococcus aureus 1629 at 1000 mg treated every 12 hrs; assay type: functional
[38] = Ratio of fAUC in […] pharmacodynamic model to MIC for multidrug-resistant Staphylococcus aureus 3286 at 1000 mg treated every 12 hrs; assay type: functional
Staphylococcus aureus [39] = experiment: fCmin in multidrug-resistant Staphylococcus aureus 3286 infected in vivo pharmacodynamic model at 2000 mg treated every 12 hrs; assay type: ADME, organism-based
Staphylococcus aureus [40] = experiment: fCmin in multidrug-resistant Staphylococcus aureus 3286 infected […] pharmacodynamic model at 1000 mg treated every 12 hrs; assay type: ADME, organism-based
[41] = Ratio of fAUC in […] pharmacodynamic model to MIC for multidrug-resistant Staphylococcus aureus 3286 at 1500 mg treated every 12 hrs; assay type: functional

SMILES: CN[C@H](CC(C)C)C(=O)N[C@H]1C(=O)N[C@@H](CC(N)=O)C(=O)N[C@H]2C(=O)N[C@H]3C(=O)N[C@H](C(=O)N[C@H](C(=O)O)c4cc(O)cc(O)c4-c4cc3ccc4O)[C@H](O)c3ccc(c(Cl)c3)Oc3cc2cc(c3O[C@@H]2O[C@H](CO)[C@@H](O)[C@H](O)[C@H]2O[C@H]2C[C@](C)(N)[C@H](O)[C@H](C)O2)Oc2ccc(cc2Cl)[C@H]1O [VANCOMYCIN]
- fAUC/MIC [1]: 2576
- CFU/ml (Staphylococcus aureus [2]): 3
- fAUC/MIC [3]: 317
- fCmin (Staphylococcus aureus [4]): 3 mg/L
- fCmin (Staphylococcus aureus [5]): 3 mg/L
- fCmin (Staphylococcus aureus [6]): 10 mg/L
- fAUC/MIC [7]: 269
- fCmin (Staphylococcus aureus [8]): 4 mg/L
- fCmin (Staphylococcus aureus [9]): 7 mg/L
- fAUC/MIC [10]: 1084
- fAUC/MIC [11]: 271
- fAUC/MIC [12]: 105
- fAUC/MIC [13]: 105
- fCmin (Staphylococcus aureus [14]): 11 mg/L
- fCmin (Staphylococcus aureus [15]): 3 mg/L
- CFU/ml (Staphylococcus aureus [16]): 2
- fAUC/MIC [17]: 799
- fCmin (Staphylococcus aureus [18]): 16 mg/L
- fCmin (Staphylococcus aureus [19]): 12 mg/L
- CFU/ml (Staphylococcus aureus [20]): 3
- fAUC/MIC [21]: >=180
- fCmin (Staphylococcus aureus [22]): 7 mg/L
- CFU/ml (Staphylococcus aureus [23]): 2
- fCmin (Staphylococcus aureus [24]): 26 mg/L
- CFU/ml (Staphylococcus aureus [25]): 3
- Activity (Staphylococcus aureus [26]): Active
- fAUC/MIC [27]: 374
- fCmin (Staphylococcus aureus [28]): 22 mg/L
- fCmin (Staphylococcus aureus [29]): 7 mg/L
- fAUC/MIC [30]: 644
- CFU/ml (Staphylococcus aureus [31]): 0.5
- CFU/ml (Staphylococcus aureus [32]): 0.5
- fCmin (Staphylococcus aureus [33]): 22 mg/L
- fCmin (Staphylococcus aureus [34]): 12 mg/L
- fAUC/MIC [35]: 168
- CFU/ml (Staphylococcus aureus [36]): 2
- fAUC/MIC [37]: 138
- fAUC/MIC [38]: 552
- fCmin (Staphylococcus aureus [39]): 12 mg/L
- fCmin (Staphylococcus aureus [40]): 3 mg/L
- fAUC/MIC [41]: 992

Source: ChEMBL document CHEMBL1629593 (Antimicrob Agents Chemother, 2009)
